Measured values reported in patent publication US20100004159A1, “SUBSTITUTED IMIDAZOLONE DERIVATIVES, PREPARATIONS AND USES” (GENFIT, priority 2006, published 2010).

What was measured:
[1] = target: T1, angiotensin II AT1 receptor (Oryctolagus cuniculus, UniProt P34976); experiment: Ex vivo agonist/antagonist activity on isolated rabbit thoracic aorta rings; settings: 0.3, 3 and 30 μM; for agonist activity (contraction): non-treated rabbit thoracic aorta; for antagonist activity (inhibition of contractile response to angiotensin II): rabbit thoracic aorta previously exposed to angiotensin II 0.003 μM
T1 construct: tissue CEREP; host or cells: rabbit thoracic aorta rings
T1 sequence (P34976 1-359): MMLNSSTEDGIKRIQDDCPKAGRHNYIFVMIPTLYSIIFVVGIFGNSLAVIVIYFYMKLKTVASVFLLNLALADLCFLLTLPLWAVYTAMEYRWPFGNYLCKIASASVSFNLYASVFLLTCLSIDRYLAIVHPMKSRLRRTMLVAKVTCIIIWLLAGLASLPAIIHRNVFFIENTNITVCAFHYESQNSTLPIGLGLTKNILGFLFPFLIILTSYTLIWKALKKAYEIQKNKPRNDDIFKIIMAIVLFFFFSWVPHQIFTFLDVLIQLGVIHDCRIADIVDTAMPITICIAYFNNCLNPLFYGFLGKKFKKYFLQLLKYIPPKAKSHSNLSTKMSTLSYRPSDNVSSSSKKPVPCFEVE
Method: This activity is either agonist or antagonist and was evaluated ex vivo on isolated organs. Agonist activity corresponds to tissue contraction. Antagonist activity corresponds to tissue dilatation.
The ex vivo test was performed at the CEREP (Celle L'Evescault, France (86)) following a protocol based on Pendleton et al. (Pendleton R G et al.,1989). Rabbit thoracic aorta rings with intact endothelium were suspended in baths for organs containing an oxygenated physiologic saline solution (95% O2 and 5% CO2) and preheated (37° C.) having the following composition (mM): NaCl 118.0, KCl 4.7, MgSO4 1.2, CaCl2 2.5, KH2PO4 1.2, NaHCO3 25.0, and glucose 11.0 (pH 7.4).
Benextramine (1 μM), propranolol (1 μM), pyrilamine (1 μM), atropine (1 μM), methysergide (1 μM), and captopril (0.1 μM) were also used in all carried out experiments to block respectively α-adrenergic, β-adrenergic, histaminic H1 muscarinic, and 5-HT2 receptors as well as to prevent peptide degradation. The tissues were bound to a force sensor suitable for isometric tension recording. They were stretched to a resting tension of 4 g, then stabilized for 60 minutes. During the stabilization, they were washed several times and the tension was adjusted. The experiments were carried out using semi-automatic systems of isolated organs with eight organ baths and multichannel data acquisition.
The tissues were exposed to a submaximal concentration of the reference agonist (angiotensin II at 0.003 μM) to verify the response and obtain a control contractile response.
After several washing operations and after having recovered the basal tone, the tissues were exposed to increasing concentrations of compounds according to the invention or the same agonist. The different concentrations were added cumulatively, each one was left in contact with the tissues until a stable response was reached and for a maximum of 30 minutes. If an agonist type response (contraction) was registered, the reference antagonist (Saralasine at 0.01 μM) was tested regarding the highest concentration of the compounds according to the invention to confirm the involvement of the AT1 receptors in the response.
After stabilization of the contraction induced by angiotensin II, increasing concentrations of compounds according to the invention or of the reference antagonist (Saralasine) were added cumulatively. Each concentration was left in contact with the tissues until a stable response was observed and for a maximum of 30 minutes.
The inhibiting effect of the compounds according to the invention on the contraction induced by the angiotensin 11 indicates antagonist activity on AT1 receptors.

[2] = tested on: SHR rats (spontaneous hypertensive rats); experiment: SHR rats treated 14 days: plasma triglycerides, arterial pressure, response to angiotensin II; format: in vivo, rat
Method: SHR rats (spontaneous hypertensive rats) (male sex—300-320 g—16-weeks old—Charles River France) were kept on a light/dark cycle of 12/12 hours at a constant temperature of 20±3° C. The compounds according to the invention being tested were suspended in carboxymethylcellulose (Sigma c4888) and administered to the animals by intra-gastric gavage, once a day for 14 days at the chosen doses. The animals had free access to food and water.
At the end of the experiment, after a 5-hour fast, the animals were anesthetized for surgery with pentobarbital (50 mg/kg). A catheter treated with heparin was placed in the carotid artery to measure arterial pressure. A second catheter was placed in the jugular vein to administer angiotensin II. Arterial pressure was measured and recorded at basal tone for 15 minutes. At this stage, the average arterial pressure of the control animals is compared to that of the animals having received the compounds according to the invention. After 15 minutes, three successive intravenous administrations of angiotensin II (50 ng/kg) were performed to evaluate the response to angiotensin II of animals treated with the compounds according to the invention.
At the end of the arterial pressure measurements, a blood sample was taken using anticoagulant (EDTA), then the animals were euthanized. The plasma was separated by centrifugation at 3000 rotations/minute for 20 minutes. The samples were kept at +4° C.
Plasma total concentrations of cholesterol, triglycerides, free fatty acids, and glucose were measured by enzymatic assays (bioMerieux-Lyon-France and Wako-Japan) according to the provider's recommendations.

| SMILES | agonist activity (contraction) [1] | antagonist activity (inhibition of contractile response to angiotensin II) [1] | arterial pressure before administrations of angiotensin II ([2]; 14 days of treatment, 150 mpk) | plasma triglyceride rate ([2]; 14 days of treatment, 150 mpk, intra-gastric) | hypertension induced by angiotensin II (difference of arterial pressure) ([2]; 14 days of treatment, 150 mpk, three intravenous administrations of angiotensin II 50 ng/kg) | melting point [°C] | hypertension induced by angiotensin II (difference of arterial pressure) ([2]; chronic treatment, 100 mpk, repeated administrations of angiotensin II) |
| --- | --- | --- | --- | --- | --- | --- | --- |
| CCCCC1=NC2(CCCC2)C(=O)N1Cc1ccc(-c2cccc(OC(C)(C)C(=O)O)c2)cc1 [Compound 1, 2-butyl-1-[(3′-((1-carboxy-1,1-dimethylmethyl)oxy)biphenyl-4-yl)methyl]-4-spirocyclopentyl-1H-imidazol-5(4H)-one] | do not induce contraction | inhibiting effect of the contractile response of the reference agonist | antihypertensive effect | unexpectedly decreased | significant antagonist effect on angiotensin II | 169 to 171 |  |
| CCCCC1=NC2(CCCCC2)C(=O)N1Cc1ccc(-c2cccc(OC(C)(C)C(=O)O)c2)cc1 [Compound 21, 2-butyl-1-[(3′-((1-carboxy-1,1-dimethylmethyl)oxy)biphenyl-4-yl)methyl]-4-spirocyclohexyl-1H-imidazol-5(4H)-one] | do not induce contraction | inhibiting effect of the contractile response of the reference agonist |  |  |  | 160 to 162 | significant antagonist effect on angiotensin II |
